Consider one compound from patent publication US20160061919A1, “IMAGING OF CREATINE KINASE ENZYME EXPRESSION IN CANCEROUS TISSUES” (Sidra Medical and Research Center, priority 2014, published 2016).

The structures appear in SMILES notation.

The test system of experiment [1] is creatine kinase (CK) expression in cancer cells. The experiment can be described thus: CEST imaging of cancer cells cultured with PCr. It is filed as cell-based. To be noted: cancer cell line cultured with PCr for 1 hour; FIG. 2. An excerpt:
(§1) In certain embodiments, the radio frequency (RF) pulse can be provided at different frequency offsets. In certain embodiments, to detect the conversion of phosphocreatine to creatine, an RF pulse was applied at a frequency offset of about 1.8 ppm for a period of about 1 to about 3 seconds.
The creatine kinase (CK) expression in cancer cells cleaves the PCr into creatine (Cr), and can be responsible for the increase in CEST contrast from creatine amine protons.

In experiment [2] the test system is CK enzyme expressed in the tumor. The experiment can be described thus: in vivo imaging of creatine kinase expression by monitoring conversion of PCr to Cr through CEST. Conditions: 60 minutes following tail vein injection of PCr, versus base line CEST map, FIG. 3. The protocol:
as §1
“b” is the base line CEST map from the same slice. “c” is a CEST map of the same slice at 60 minutes following tail vein injection of PCr.

Turning to `CN(CC(=O)O)C(=N)NP(=O)(O)O` [PCr, phosphocreatine], the “elevation of the CEST contrast over cancer cells without PCr” value in experiment [1] is “about 16%”. Besides, the “increase in CEST contrast” value in experiment [2] is recorded as “about 11%”.
